Laboratory results reported in ChEMBL document CHEMBL1681705, “Optimisation of ITK inhibitors through successive iterative design cycles” (Bioorg Med Chem Lett, 2011).

How the values were obtained:
[1] = Inhibition of PDK1 at 0.1 uM
[2] = biological target: ALK tyrosine kinase receptor (Homo sapiens) (UniProt Q9UM73); experiment: Inhibition of ALK at 1 uM; values are per cent of control
[3] = biological target: Tyrosine-protein kinase Fes/Fps (Homo sapiens) (UniProt P07332); experiment: Inhibition of Fes at 1 uM; values are per cent of control
Sequence of Tyrosine-protein kinase Fes/Fps (Homo sapiens) (P07332 whole entry): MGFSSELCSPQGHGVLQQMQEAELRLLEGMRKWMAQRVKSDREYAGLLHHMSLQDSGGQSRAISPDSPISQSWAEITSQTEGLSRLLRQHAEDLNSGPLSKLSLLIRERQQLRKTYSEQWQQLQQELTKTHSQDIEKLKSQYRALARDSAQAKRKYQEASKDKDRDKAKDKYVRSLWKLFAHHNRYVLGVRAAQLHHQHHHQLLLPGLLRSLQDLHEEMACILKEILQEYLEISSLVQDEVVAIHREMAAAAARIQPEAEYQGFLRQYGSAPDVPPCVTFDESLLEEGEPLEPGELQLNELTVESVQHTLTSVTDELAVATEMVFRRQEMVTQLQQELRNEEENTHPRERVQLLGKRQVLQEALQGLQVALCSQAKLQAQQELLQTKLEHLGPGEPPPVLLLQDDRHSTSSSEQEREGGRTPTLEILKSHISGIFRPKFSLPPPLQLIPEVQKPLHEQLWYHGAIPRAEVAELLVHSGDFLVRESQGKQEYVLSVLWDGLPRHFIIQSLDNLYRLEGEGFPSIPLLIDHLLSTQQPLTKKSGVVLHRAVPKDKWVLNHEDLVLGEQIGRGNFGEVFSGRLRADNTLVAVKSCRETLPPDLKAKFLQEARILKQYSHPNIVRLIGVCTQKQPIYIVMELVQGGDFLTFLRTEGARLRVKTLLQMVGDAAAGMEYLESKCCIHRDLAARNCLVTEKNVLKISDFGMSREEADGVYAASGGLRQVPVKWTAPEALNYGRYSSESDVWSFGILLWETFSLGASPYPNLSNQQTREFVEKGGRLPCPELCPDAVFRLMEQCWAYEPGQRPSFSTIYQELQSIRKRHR

[4] = biological target: Tyrosine-protein kinase Fgr (Homo sapiens) (UniProt P09769); experiment: Inhibition of Fgr at 1 uM; values are per cent of control
Sequence of Tyrosine-protein kinase Fgr (Homo sapiens) (P09769 2-529 limits assumed): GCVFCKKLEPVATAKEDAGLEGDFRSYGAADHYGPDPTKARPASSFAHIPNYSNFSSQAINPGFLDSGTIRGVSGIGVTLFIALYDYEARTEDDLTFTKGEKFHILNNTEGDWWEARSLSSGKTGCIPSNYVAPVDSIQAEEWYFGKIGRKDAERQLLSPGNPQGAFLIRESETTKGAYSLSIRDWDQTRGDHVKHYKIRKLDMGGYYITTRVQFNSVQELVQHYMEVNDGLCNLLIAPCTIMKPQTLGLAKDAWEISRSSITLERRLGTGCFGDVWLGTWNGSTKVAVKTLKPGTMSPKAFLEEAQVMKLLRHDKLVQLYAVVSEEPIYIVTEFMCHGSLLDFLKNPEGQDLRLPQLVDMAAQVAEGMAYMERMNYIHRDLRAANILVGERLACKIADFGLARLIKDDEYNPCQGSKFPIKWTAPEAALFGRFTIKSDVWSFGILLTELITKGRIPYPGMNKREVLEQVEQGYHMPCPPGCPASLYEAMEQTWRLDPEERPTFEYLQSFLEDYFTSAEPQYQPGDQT

[5] = biological target: T1, Serine/threonine-protein kinase STK11 (Homo sapiens) (UniProt Q15831); experiment: Inhibition of LKB1 at 1 uM; values are per cent of control
T1 sequence (whole entry): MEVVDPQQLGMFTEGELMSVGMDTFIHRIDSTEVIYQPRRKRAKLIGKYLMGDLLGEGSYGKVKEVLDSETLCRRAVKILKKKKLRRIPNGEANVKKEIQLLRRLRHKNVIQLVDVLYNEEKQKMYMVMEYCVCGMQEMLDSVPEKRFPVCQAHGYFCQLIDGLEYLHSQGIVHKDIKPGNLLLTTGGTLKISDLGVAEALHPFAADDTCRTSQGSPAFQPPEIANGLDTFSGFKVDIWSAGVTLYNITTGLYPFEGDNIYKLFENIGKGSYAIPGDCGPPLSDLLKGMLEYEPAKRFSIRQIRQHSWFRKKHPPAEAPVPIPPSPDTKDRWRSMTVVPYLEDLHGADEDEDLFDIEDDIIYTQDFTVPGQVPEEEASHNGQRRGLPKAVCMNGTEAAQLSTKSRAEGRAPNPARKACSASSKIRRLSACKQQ

[6] = biological target: Dual specificity mitogen-activated protein kinase kinase 1 (Homo sapiens) (UniProt Q02750); experiment: Inhibition of MEK1 at 1 uM; values are per cent of control
Sequence of Dual specificity mitogen-activated protein kinase kinase 1 (Homo sapiens) (Q02750 whole entry): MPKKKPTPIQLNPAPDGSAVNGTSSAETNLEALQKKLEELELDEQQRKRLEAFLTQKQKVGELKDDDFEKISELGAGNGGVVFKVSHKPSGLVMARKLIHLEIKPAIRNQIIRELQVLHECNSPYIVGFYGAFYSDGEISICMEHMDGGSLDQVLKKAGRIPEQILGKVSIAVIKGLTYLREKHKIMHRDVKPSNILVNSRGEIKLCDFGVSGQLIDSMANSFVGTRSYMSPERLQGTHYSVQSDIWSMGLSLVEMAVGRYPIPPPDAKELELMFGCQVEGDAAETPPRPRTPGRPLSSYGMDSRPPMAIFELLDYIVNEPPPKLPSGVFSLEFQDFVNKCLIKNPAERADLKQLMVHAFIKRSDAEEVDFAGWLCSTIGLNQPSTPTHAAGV

[7] = biological target: BDNF/NT-3 growth factors receptor (Homo sapiens) (UniProt Q16620); experiment: Inhibition of TrkB at 1 uM; values are per cent of control
Sequence of BDNF/NT-3 growth factors receptor (Homo sapiens) (Q16620 32-822 limits assumed): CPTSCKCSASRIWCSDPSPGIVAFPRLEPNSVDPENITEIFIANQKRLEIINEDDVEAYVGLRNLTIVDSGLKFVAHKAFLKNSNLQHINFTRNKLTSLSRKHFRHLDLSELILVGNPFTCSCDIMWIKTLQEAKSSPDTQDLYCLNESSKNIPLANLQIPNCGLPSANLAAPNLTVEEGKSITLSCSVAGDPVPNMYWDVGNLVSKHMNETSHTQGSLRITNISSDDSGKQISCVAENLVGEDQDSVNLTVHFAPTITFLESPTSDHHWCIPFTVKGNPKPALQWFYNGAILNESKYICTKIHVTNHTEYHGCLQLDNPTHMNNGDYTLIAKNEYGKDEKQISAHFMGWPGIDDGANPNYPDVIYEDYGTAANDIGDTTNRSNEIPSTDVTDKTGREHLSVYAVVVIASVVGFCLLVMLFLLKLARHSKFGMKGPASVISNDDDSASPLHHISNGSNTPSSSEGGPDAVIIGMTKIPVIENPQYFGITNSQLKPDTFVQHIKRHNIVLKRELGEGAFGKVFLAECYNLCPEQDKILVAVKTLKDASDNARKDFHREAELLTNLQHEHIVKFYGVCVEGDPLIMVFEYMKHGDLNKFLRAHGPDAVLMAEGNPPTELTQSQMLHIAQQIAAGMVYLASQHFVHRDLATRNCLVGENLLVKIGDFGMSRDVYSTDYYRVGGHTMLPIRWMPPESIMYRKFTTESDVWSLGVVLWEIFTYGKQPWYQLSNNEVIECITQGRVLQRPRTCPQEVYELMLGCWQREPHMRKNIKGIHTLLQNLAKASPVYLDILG

[8] = biological target: Proto-oncogene tyrosine-protein kinase receptor Ret (Homo sapiens) (UniProt P07949); experiment: Inhibition of Ret at 0.1 uM; values are per cent of control
Sequence of Proto-oncogene tyrosine-protein kinase receptor Ret (Homo sapiens) (P07949 whole entry): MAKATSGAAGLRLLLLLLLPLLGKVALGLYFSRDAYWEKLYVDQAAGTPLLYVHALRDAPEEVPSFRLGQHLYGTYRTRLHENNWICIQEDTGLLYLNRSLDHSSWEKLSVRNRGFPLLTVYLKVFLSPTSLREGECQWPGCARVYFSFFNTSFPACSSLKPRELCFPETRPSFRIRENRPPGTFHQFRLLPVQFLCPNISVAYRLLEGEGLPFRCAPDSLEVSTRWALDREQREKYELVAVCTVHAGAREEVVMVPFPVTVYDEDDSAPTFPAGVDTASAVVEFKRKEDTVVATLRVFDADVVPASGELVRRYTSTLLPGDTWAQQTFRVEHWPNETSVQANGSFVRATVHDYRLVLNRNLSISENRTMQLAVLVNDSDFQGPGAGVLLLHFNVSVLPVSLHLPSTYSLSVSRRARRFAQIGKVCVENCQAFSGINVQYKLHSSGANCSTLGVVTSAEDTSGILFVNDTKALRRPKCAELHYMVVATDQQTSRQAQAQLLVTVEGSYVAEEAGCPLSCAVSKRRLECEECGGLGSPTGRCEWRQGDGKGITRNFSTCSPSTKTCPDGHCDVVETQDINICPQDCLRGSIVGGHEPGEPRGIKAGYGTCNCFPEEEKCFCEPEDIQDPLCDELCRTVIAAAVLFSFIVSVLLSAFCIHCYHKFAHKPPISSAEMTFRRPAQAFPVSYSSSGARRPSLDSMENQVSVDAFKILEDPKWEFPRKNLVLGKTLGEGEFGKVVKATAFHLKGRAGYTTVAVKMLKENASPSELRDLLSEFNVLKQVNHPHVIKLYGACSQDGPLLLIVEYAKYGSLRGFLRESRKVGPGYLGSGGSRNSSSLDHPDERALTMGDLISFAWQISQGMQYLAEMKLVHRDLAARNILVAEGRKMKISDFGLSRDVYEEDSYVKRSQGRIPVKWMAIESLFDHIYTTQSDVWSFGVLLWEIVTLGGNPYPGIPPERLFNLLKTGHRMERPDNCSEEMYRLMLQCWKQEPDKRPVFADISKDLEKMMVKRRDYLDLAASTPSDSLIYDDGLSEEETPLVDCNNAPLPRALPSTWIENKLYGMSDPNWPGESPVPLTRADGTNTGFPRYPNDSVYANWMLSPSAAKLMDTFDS

[9] = biological target: Death-associated protein kinase 2 (Homo sapiens) (UniProt Q9UIK4); experiment: Inhibition of DAPK2 at 1 uM; values are per cent of control
[10] = biological target: Ribosomal protein S6 kinase alpha-4 (Homo sapiens) (UniProt O75676); experiment: Inhibition of MSK2 at 0.1 uM; values are per cent of control
Sequence of Ribosomal protein S6 kinase alpha-4 (Homo sapiens) (O75676 whole entry, looked up): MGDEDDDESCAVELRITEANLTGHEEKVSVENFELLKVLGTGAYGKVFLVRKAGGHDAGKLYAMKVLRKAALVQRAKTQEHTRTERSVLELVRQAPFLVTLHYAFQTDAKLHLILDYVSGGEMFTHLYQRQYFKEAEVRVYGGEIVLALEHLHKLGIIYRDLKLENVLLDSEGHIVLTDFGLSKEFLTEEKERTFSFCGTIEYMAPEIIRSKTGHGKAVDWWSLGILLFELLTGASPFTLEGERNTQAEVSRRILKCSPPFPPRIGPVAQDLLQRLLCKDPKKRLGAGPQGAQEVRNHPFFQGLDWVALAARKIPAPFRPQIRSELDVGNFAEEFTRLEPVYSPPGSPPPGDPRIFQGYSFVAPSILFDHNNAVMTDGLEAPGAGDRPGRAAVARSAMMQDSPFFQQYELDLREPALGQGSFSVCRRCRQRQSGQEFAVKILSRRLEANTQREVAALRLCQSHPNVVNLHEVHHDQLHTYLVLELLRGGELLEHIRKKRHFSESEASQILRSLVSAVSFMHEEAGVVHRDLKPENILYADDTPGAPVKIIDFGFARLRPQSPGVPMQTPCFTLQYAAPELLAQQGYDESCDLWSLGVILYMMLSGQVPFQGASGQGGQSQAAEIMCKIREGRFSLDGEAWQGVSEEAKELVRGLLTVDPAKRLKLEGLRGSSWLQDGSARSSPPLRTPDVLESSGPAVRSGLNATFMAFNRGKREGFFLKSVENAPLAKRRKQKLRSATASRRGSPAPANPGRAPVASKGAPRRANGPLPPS

[11] = biological target: T2, Ephrin type-B receptor 4 (Homo sapiens) (UniProt P54760); experiment: Inhibition of EphB4 at 0.1 uM; values are per cent of control
T2 sequence (whole entry): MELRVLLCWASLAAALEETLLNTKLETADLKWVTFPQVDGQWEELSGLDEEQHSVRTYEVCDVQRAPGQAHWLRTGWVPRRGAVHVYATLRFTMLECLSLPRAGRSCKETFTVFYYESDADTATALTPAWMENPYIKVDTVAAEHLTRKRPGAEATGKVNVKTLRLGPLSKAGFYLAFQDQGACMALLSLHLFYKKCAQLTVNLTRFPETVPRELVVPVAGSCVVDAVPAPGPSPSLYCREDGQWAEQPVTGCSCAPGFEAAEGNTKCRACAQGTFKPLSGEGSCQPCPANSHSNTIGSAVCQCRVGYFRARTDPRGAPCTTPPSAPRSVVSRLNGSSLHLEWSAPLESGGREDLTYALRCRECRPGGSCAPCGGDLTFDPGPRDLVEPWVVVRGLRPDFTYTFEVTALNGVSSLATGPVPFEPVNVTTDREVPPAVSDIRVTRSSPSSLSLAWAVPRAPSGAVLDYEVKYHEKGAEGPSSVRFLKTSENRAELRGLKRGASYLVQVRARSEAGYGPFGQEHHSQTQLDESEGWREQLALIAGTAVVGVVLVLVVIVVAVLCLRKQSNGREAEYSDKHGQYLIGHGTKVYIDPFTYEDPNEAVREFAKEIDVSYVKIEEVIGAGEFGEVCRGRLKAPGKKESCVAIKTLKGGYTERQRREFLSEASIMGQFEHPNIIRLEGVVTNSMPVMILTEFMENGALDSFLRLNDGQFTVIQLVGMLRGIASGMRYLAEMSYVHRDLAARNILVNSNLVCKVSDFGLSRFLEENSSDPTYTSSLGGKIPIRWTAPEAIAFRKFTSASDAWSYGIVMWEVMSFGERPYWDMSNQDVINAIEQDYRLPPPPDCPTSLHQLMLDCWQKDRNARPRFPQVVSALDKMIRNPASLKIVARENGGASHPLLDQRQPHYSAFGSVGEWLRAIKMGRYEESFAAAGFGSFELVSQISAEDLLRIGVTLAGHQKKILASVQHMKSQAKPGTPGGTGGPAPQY

[12] = biological target: T3, Interleukin-1 receptor-associated kinase 4 (Homo sapiens) (UniProt Q9NWZ3); experiment: Inhibition of IRAK4 at 0.1 uM; values are per cent of control
T3 sequence (whole entry): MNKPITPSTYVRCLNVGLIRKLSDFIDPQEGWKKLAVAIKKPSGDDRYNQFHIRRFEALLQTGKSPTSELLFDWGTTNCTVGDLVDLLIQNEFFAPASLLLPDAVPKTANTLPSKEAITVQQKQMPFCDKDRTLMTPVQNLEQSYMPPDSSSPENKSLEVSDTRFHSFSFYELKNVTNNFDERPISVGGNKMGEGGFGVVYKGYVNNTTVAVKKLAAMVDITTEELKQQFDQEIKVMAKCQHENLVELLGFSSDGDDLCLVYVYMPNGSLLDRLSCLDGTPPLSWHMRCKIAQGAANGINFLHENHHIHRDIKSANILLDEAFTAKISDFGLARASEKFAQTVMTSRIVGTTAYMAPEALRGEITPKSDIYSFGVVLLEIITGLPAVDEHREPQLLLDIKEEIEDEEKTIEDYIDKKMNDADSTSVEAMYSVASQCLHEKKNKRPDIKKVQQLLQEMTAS

[13] = biological target: Serine/threonine-protein kinase 33 (Homo sapiens) (UniProt Q9BYT3); experiment: Inhibition of STK33 at 0.1 uM; values are per cent of control
Sequence of Serine/threonine-protein kinase 33 (Homo sapiens) (Q9BYT3 whole entry, looked up): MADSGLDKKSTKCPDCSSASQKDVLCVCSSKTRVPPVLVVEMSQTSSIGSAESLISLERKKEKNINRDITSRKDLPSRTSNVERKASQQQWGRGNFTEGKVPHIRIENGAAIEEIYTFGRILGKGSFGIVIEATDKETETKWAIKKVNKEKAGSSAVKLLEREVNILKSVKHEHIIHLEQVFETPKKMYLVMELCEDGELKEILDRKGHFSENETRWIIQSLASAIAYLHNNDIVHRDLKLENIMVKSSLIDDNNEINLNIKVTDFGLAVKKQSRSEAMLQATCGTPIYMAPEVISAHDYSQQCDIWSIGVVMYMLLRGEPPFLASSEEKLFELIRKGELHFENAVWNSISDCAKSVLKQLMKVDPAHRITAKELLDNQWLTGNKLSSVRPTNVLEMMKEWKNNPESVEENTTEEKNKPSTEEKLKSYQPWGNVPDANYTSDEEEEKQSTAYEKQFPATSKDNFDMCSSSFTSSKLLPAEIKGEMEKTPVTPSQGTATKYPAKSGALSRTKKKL

inhibition [1] | residual activity [2] | residual activity [3] | residual activity [4] | residual activity [5] | residual activity [6] | residual activity [7] | residual activity [8] | residual activity [10] | residual activity [11] | residual activity [12] | residual activity [13] | Structure (SMILES) | residual activity [9]
87% | 4% | 1% | 0% | 101% | 87% | 0% | 0% | 106% | 101% | 25% | 13% | Cc1ccc2cc(-c3n[nH]c4ccc(NC5CCN(Cc6ccccc6)CC5)cc34)[nH]c2c1 | 112%
46% | 5% | 0% | -1% | 98% | 13% | 1% | 8% | 39% | 106% | 6% | 76% | Cc1ccc2cc(-c3n[nH]c4ccc(NC5CCNC5)cc34)[nH]c2c1 (stereo unspecified) | 61%
